Usually IC50 stands for the point on the concentration scale where inhibition reaches its midpoint.

A short description of one experiment: cells. To be noted: Homo sapiens, MCF-10A, read-out: MCF10A IC50.
A further experiment concerns the target H1047R PIK3CA enzyme (Homo sapiens, UniProt P42336, H1047R). Nature of the experiment: ADP-Glo Biochemical PIK3CA Kinase Assay. In general terms: ADP-Glo turns the ADP formed in a reaction into a luminescent signal.

Chain of H1047R PIK3CA enzyme (P42336 whole entry H1047R): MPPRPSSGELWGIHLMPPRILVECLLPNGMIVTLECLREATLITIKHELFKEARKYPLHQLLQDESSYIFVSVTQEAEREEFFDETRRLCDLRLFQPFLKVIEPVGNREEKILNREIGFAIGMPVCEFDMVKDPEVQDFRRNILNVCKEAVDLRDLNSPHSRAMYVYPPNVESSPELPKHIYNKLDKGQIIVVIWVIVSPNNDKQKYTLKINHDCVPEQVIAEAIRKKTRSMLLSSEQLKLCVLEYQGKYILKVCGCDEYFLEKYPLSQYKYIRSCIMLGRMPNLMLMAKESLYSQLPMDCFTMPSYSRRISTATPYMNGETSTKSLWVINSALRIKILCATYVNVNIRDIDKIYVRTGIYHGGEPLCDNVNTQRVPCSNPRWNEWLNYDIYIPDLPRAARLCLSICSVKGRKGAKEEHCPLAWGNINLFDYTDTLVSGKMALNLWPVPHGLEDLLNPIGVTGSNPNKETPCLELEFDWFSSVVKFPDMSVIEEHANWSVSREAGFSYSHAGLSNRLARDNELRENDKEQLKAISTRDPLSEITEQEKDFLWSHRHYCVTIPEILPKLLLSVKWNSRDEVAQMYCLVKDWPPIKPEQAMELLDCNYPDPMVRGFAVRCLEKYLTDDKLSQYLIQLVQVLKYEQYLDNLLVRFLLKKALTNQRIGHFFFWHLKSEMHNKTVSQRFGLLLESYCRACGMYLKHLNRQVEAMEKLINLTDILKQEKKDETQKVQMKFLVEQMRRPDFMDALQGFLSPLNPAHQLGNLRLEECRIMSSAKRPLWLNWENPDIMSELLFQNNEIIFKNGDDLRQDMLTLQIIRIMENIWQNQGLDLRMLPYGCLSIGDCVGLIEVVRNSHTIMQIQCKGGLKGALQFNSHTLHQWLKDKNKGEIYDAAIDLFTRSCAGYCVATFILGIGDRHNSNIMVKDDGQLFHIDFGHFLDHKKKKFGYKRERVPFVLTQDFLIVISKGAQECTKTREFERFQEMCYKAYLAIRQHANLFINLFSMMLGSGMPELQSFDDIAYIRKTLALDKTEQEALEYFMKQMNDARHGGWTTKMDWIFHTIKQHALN
Chain of H1047R PIK3CA enzyme (P27986 whole entry partner): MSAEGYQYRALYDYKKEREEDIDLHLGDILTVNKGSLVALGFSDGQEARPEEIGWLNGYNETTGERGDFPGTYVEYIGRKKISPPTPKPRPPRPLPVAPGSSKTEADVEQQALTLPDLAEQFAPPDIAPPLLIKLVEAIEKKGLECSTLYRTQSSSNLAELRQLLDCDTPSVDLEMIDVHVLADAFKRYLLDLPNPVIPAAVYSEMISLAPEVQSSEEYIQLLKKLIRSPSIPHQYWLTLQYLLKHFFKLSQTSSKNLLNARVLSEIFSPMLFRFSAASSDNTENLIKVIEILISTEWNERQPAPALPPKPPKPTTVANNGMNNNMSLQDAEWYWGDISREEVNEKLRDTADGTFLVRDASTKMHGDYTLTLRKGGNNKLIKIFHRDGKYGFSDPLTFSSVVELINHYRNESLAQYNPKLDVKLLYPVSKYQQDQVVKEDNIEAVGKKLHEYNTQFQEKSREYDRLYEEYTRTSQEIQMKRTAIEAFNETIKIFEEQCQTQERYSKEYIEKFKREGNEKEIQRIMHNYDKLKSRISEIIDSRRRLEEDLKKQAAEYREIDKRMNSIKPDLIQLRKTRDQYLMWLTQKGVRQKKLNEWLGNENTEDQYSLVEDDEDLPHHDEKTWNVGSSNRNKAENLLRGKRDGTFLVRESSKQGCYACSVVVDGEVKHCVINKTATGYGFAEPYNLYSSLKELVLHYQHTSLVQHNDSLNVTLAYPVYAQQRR

Turning to `CNC(=O)c1cc(NC(=O)c2csc3ccccc23)c2c(c1)C(=O)N[C@H]2c1ccccc1C` [Compound I-76, (S)-7-(Benzo[b]thiophene-3-carboxamido)-N-methyl-3-oxo-1-(o-tolyl)isoindoline-5-carboxamide], the IC50 in the experiment “cells” is less than 1 µM; at H1047R PIK3CA enzyme, not above 0.1 µM.
The matching figures for `O=C1NC(c2cc(F)ccc2Cl)c2c(NC(=O)c3nsc4ccccc34)cccc21` (centres unmarked) [Compound I-83]: less than 1 µM and not above 0.1 µM.
As for `Cc1ccccc1C1NC(=O)c2cc(CNC(=O)OC(C)(C)C)cc(NC(=O)c3csc4ccccc34)c21` (centres unmarked) [Compound I-87], the IC50 was 1 to 5 µM in the experiment “cells” and not above 0.1 µM against H1047R PIK3CA enzyme.
Turning to `Cc1ccccc1[C@@H]1NC(=O)c2cc(N)cc(NC(=O)c3nsc4ccccc34)c21` [Compound I-92], the IC50 is less than 1 µM in the experiment “cells” and not above 0.1 µM against H1047R PIK3CA enzyme.
Take `C=Cc1cc(NC(=O)c2csc3ccccc23)c2c(c1)C(=O)NC2c1ccccc1C` (centres unmarked) [Compound I-100, N-[6-Ethenyl-3-(2-methylphenyl)-1-oxo-2,3-dihydro-1H-isoindol-4-yl]-1-benzothiophene-3-carboxamide]: the values for the IC50 in the experiment “cells” and against H1047R PIK3CA enzyme were 5 to 10 µM and not above 0.1 µM, respectively.
The matching figures for `Cc1ccccc1C1NC(=O)c2cc(C(=O)NCC(F)F)cc(NC(=O)c3nsc4ccccc34)c21` (centres unmarked) [Compound I-121]: less than 1 µM and not above 0.1 µM.
Take `O=C1NC(c2ccccc2C(F)F)c2c(NC(=O)c3nsc4ccccc34)cccc21` (centres unmarked) [Compound I-122]: the IC50 in the experiment “cells” was 1 to 5 µM; on H1047R PIK3CA enzyme, not above 0.1 µM.
As to `O=C(Nc1cc(Br)cc2c1C(c1cc(F)ccc1Cl)NC2=O)c1cc(F)cc(C(F)(F)F)c1` (centres unmarked) [Compound I-124], the IC50 in “cells” is 1 to 5 µM; on H1047R PIK3CA enzyme, not above 0.1 µM.
The matching figures for `Nc1cc(NC(=O)c2cc(F)cc(C(F)(F)F)c2)c2c(c1)C(=O)NC2c1cc(F)ccc1Cl` (centres unmarked) [Compound I-125]: less than 1 µM and not above 0.1 µM.
For `O=C1NC(c2cc(F)ccc2Cl)c2c(NC(=O)c3nsc4ccccc34)cc(Br)cc21` (centres unmarked) [Compound I-144] the same measures were 5 to 10 µM and not above 0.1 µM.
The matching figures for `COCc1cc(NC(=O)c2nsc3ccccc23)c2c(c1)C(=O)NC2c1ccccc1C` (centres unmarked) [Compound I-146, N-(6-(Methoxymethyl)-1-oxo-3-(o-tolyl)isoindolin-4-yl)benzo[d]isothiazole-3-carboxamide]: 5 to 10 µM and not above 0.1 µM.
For the molecule `COc1ccc(CNCc2cc(NC(=O)c3nsc4ccccc34)c3c(c2)C(=O)NC3c2cc(F)ccc2Cl)cc1` (centres unmarked) [Compound I-155], the values for the IC50 in the experiment “cells” and on H1047R PIK3CA enzyme were 1 to 5 µM and not above 0.1 µM, respectively.
Turning to `O=C(Nc1cc(-c2cn[nH]c2)nc2c1C(c1cc(F)ccc1Cl)NC2=O)c1cc(F)cc(C(F)(F)F)c1` (centres unmarked) [Compound I-161], the IC50 is 1 to 5 µM in the experiment “cells” and not above 0.1 µM against H1047R PIK3CA enzyme.
As to `CNC(=O)c1cc(NC(=O)c2nsc3ccccc23)c2c(c1)C(=O)N[C@@H]2c1ccccc1C` [Compound I-164], the IC50 lay within 10 to 36 µM in the experiment “cells” and 1 to 10 µM at H1047R PIK3CA enzyme.
For the molecule `Cc1ccccc1[C@@H]1NC(=O)c2cc(C(=O)NCC(F)F)cc(NC(=O)c3nsc4ccccc34)c21` [Compound I-166], the 50% inhibitory concentration (IC50) is less than 1 µM in “cells” and not above 0.1 µM on H1047R PIK3CA enzyme.
For `O=C1N[C@H](c2cc(F)ccc2C(F)F)c2c(NC(=O)c3nsc4ccccc34)cccc21` [Compound I-167] the same measures were 1 to 5 µM and not above 0.1 µM.
Turning to `CC(C)(O)c1cc(NC(=O)c2cc(F)cc(C(F)(F)F)c2)c2c(c1)C(=O)N[C@H]2c1cc(F)ccc1Cl` [Compound I-189], the IC50 is less than 1 µM in the experiment “cells” and not above 0.1 µM on H1047R PIK3CA enzyme.
For `CC(C)(O)c1cc(NC(=O)c2nsc3ccccc23)c2c(c1)C(=O)N[C@H]2c1cc(F)ccc1Cl` [Compound I-192] the same measures were less than 1 µM and not above 0.1 µM.
The matching figures for `Cc1ccccc1C1NC(=O)c2cc(CS(C)(=O)=O)cc(NC(=O)c3nsc4ccccc34)c21` (centres unmarked) [Compound I-202, N-(6-((Methylsulfonyl)methyl)-1-oxo-3-(o-tolyl)isoindolin-4-yl)benzo[d]isothiazole-3-carboxamide]: less than 1 µM and not above 0.1 µM.
For `Nc1cc(NC(=O)c2cc(F)cc(C(F)(F)F)c2)c2c(c1)C(=O)N[C@H]2c1cc(F)ccc1Cl` [Compound I-218] the same measures were less than 1 µM and not above 0.1 µM.
Take `Cn1cc(-c2cc(NC(=O)c3cc(F)cc(C(F)(F)F)c3)c3c(c2)C(=O)NC3c2cc(F)ccc2C(F)F)cn1` (centres unmarked) [Compound I-220]: the results for the IC50 in “cells” and at H1047R PIK3CA enzyme were less than 1 µM and not above 0.1 µM, respectively.
As to `CC(C)(O)c1cc(NC(=O)c2cc(F)cc(C(F)(F)F)c2)c2c(c1)C(=O)N[C@H]2c1cc(F)ccc1C(F)F` [Compound I-264], the IC50 in “cells” was 1 to 5 µM; at H1047R PIK3CA enzyme it was not above 0.1 µM.
As for `Nc1cc(NC(=O)c2cc(F)cc(C(F)(F)F)c2)c2c(c1)C(=O)NC2c1cc(F)ccc1C(F)F` (centres unmarked) [Compound I-289], the IC50 was less than 1 µM in “cells” and not above 0.1 µM on H1047R PIK3CA enzyme.
With `CC(C)(O)c1cc(NC(=O)c2cc(F)cc(Cl)c2)c2c(c1)C(=O)N[C@H]2c1cc(F)ccc1Cl` [Compound I-298], the IC50 was less than 1 µM in the experiment “cells” and not above 0.1 µM at H1047R PIK3CA enzyme.
For `O=C(Nc1cc(Br)cc2c1[C@H](c1cc(F)ccc1Cl)NC2=O)c1cc(F)cc(C(F)(F)F)c1` [Compound I-388] the same measures were less than 1 µM and not above 0.1 µM.
In the case of `CNC(=O)c1cc(NC(=O)c2cc(F)cc(C(F)(F)F)c2)c2c(c1)C(=O)NC2c1cc(F)ccc1Cl` (centres unmarked) [Compound I-493], the results for the IC50 in “cells” and at H1047R PIK3CA enzyme were less than 1 µM and not above 0.1 µM, respectively.
Take `O=C(Nc1cccc2c1[C@H](c1cc(F)ccc1Cl)NC2=O)c1cc(F)cc(C(F)(F)F)c1` [Compound I-500]: the IC50 is less than 1 µM in “cells” and not above 0.1 µM against H1047R PIK3CA enzyme.
Take `COCc1cc(NC(=O)c2cc(F)cc(C(F)(F)F)c2)c2c(c1)C(=O)N[C@H]2c1cc(F)ccc1Cl` [Compound I-691]: the IC50 is less than 1 µM in “cells” and not above 0.1 µM on H1047R PIK3CA enzyme.
Turning to `O=C(Nc1cc(-c2ccc(=O)n(C3CC3)c2)nc2c1[C@H](c1cc(F)ccc1Cl)NC2=O)c1cc(F)cc(C(F)(F)F)c1` [Compound I-747], the values for the IC50 in “cells” and against H1047R PIK3CA enzyme were less than 1 µM and not above 0.1 µM, respectively.
For the molecule `Cn1cc(-c2cc(NC(=O)c3cc(F)cc(C(F)(F)F)c3)c3c(c2)C(=O)NC3c2cc(F)ccc2Cl)cn1` (centres unmarked) [Compound I-811], the values for the IC50 in “cells” and against H1047R PIK3CA enzyme were less than 1 µM and not above 0.1 µM, respectively.
As to `O=C(Nc1cc(NC2COC2)cc2c1[C@H](c1cc(F)ccc1Cl)NC2=O)c1cc(F)cc(C(F)(F)F)c1` [Compound I-814], the IC50 in the experiment “cells” was less than 1 µM; against H1047R PIK3CA enzyme it was not above 0.1 µM.
For `O=C(Nc1cc(-c2c[nH]nn2)cc2c1C(c1cc(F)ccc1Cl)NC2=O)c1cc(F)cc(C(F)(F)F)c1` (centres unmarked) [Compound I-840] the same measures were less than 1 µM and not above 0.1 µM.
For `Cc1nocc1Nc1cc(NC(=O)c2cc(F)cc(C(F)(F)F)c2)c2c(c1)C(=O)NC2c1cc(F)ccc1Cl` (centres unmarked) [Compound I-856] the same measures were less than 1 µM and not above 0.1 µM.
For `O=C(Nc1cc(-c2ccn[nH]2)cc2c1[C@H](c1cc(F)ccc1Cl)NC2=O)c1cc(F)cc(C(F)(F)F)c1` [Compound I-865] the same measures were less than 1 µM and not above 0.1 µM.

Values taken from patent publication US12581252B2, “Substituted pyrrolo[3,4-b]pyridines as PI3K-α inhibitors” (Relay Therapeutics, Inc., priority 2020, dated 2026).
